The source made the active and inactive calls.
Columns and labels:
[1] = molecular target: Induced myeloid leukemia cell differentiation protein Mcl-1 (Homo sapiens, UniProt Q07820); type: functional
[2] = HGIII-sPLA2 enzyme inhibition potency – biochemical, QFRET, IC50, dose response (AID 743457);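 further: green fluorescence rise as the enzyme cleaves BODIPY PC-A2 in liposomes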
Beta-galactosidase = Beta-galactosidase (Escherichia coli, UniProt Q8VNN2); experiment: Dose response counterscreen for EBI2 assay utilizing the enzyme, b-galactosidase.; type: functional
[3] = Luminescence Cell-Based Dose Confirmation HTS to Identify Activators of 5'UTR Stem-Loop Driven Alpha-Synuclein mRNA Translation in H4 Neuroglioblastoma Cells. [Related pubchem assays: 1829 (Project Summary), 1814 (Primary HTS)]; type: functional
[4] = Luminescence Cell-Based Dose Response HTS to Identify Activators of Luciferase Translation or Activity in H4 […] Cells. [Related pubchem assays: 1829 (Project Summary), 1814 (Primary HTS)]; type: functional
H4 = experiment: Luminescence Cell-Based Dose Response HTS to Identify Activators of 5'UTR Stem-Loop Driven Prion Protein mRNA Translation in H4 Neuroglioblastoma Cells. [Related pubchem assays: 1829 (Project Summary), 1814 (Primary HTS)]; type: functional; conditions: Homo sapiens
Protein skinhead-1 = molecular target: T1, Protein skinhead-1 (Caenorhabditis elegans, UniProt P34707); type: functional
T1 sequence (P34707 whole entry): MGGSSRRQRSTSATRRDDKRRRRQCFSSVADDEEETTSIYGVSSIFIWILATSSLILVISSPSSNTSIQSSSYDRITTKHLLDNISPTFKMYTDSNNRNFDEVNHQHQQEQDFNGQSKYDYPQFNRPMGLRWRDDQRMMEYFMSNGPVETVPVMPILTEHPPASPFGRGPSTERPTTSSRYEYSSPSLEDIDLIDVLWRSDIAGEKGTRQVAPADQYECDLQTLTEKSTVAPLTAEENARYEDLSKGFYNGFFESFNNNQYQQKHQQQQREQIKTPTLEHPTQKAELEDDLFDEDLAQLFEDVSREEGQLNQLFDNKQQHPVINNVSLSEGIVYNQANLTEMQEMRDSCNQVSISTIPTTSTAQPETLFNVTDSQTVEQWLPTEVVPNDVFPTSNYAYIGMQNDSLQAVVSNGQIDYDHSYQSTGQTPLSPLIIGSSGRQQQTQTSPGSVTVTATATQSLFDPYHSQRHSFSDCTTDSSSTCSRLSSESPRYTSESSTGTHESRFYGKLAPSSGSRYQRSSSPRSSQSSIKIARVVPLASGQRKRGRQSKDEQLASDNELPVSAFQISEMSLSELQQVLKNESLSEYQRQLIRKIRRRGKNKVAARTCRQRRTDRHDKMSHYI

cells [5] = type: functional, cell-based
[6] = molecular target: T2, Nuclear receptor subfamily 0 group B member 1 (Homo sapiens, UniProt P51843); type: functional, cell-based;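 further: HEK293T cells transfected with SF-1 and DAX-1 plus StAR promoter luciferase reporter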
T2 sequence (P51843 whole entry): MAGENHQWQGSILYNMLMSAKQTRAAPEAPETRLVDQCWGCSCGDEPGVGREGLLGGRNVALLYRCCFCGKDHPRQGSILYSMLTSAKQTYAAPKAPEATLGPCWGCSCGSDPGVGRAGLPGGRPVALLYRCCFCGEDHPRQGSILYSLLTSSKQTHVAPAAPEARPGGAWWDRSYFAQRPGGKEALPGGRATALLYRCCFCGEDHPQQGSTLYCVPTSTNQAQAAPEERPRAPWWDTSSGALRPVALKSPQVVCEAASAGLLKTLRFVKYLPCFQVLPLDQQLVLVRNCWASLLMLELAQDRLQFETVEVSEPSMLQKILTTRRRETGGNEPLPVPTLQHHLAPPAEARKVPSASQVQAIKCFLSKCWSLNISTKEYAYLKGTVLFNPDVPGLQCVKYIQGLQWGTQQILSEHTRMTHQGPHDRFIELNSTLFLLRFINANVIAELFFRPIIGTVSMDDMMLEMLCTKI

[7] = A549 cell cytotoxicity, dose response, cytotoxicity control, plate reader, cherry-pick, antagonist series (AID 743412); type: functional, cell-based
[8] = toxicity toward HepG2 liver cells – cell-based, plate reader, cherry-pick, antagonist series, cytotoxicity control, dose response (AID 743416); type: functional
[9] = blockers of bursicon-stimulated LGR2 cAMP reporter – cell-based, HEK293, CRE-luciferase reporter, cherry pick, set 2, dose response (AID 743343); type: functional;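 further: transfected cells were stimulated with diluted bursicon conditioned medium after compound addition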
[10] = blockade of melanocortin 4 receptor signaling – cell-based, plate reader, cherry pick, counter-screen for LGR2 antagonist project, dose response (AID 743444); type: functional;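 further: transfected HEK 293 cells stimulated with alpha-MSH peptide; potency of inhibitors of the alpha-MSH evoked signal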
Galanin receptor type 3 = molecular target: T3, Galanin receptor type 3 (Homo sapiens, UniProt O60755); experiment: Fluorescence-based cell-based primary high throughput dose response assay to identify antagonists of the Galanin Receptor 3 (GalR3).; type: functional
T3 sequence (O60755 whole entry): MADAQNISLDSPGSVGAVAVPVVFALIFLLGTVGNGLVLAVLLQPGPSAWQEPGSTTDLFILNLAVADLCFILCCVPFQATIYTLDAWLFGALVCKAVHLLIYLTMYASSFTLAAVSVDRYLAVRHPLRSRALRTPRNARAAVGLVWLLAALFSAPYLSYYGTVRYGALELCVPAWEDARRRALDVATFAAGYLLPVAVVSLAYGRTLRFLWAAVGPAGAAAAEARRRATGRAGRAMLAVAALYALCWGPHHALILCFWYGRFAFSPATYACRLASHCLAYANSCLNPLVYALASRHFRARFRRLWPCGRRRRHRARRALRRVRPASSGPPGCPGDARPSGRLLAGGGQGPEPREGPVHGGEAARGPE

cells [11] = type: functional, cell-based; conditions: HEK-CNG
[12] = molecular target: T4, Heat shock factor protein 1 (Mus musculus, UniProt P38532); experiment: enhancement of HSF1-driven luciferase signal – cell-based, NIH3T3, luminescence, dose retest, confirmation (AID 435004); type: functional;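 further: stress induced by proteasome inhibitor MG132 added 30 min after compound; luciferase reporter driven by HSF1 response element in NIH3T3 cells; actives raise luminescence as potentiators of the MG132 stress response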
T4 sequence (P38532 whole entry): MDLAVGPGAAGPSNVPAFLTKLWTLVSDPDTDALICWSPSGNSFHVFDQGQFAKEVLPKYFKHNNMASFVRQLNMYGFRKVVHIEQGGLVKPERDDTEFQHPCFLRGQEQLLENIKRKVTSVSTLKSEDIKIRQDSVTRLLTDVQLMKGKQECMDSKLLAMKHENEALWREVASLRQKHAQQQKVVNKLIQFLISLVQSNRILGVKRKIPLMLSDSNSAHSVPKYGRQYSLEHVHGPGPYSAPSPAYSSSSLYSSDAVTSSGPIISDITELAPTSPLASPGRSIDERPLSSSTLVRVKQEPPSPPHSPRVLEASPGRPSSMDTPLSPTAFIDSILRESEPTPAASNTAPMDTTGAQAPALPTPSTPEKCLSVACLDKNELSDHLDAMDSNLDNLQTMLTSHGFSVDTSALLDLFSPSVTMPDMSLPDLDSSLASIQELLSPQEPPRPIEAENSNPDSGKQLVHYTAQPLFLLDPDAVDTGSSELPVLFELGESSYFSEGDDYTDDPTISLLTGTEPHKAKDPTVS

[13] = viability loss in THP-1 monocytes – THP-1 cells, cytotoxicity control for Vif-APOBEC3G degradation inhibitor project, dose response (AID 1117359); type: functional; conditions: THP-1
[14] = viability loss in HeLa cells – cytotoxicity control for MgcRacGAP inhibitor project, dose response (AID 624300); type: functional
[15] = molecular target: T5, Rac GTPase-activating protein 1 (Homo sapiens, UniProt Q9H0H5); experiment: blockers of MgcRacGAP-driven Rac1 GTP hydrolysis – biochemical, ADP Hunter fluorescence, primary and confirmatory, confirmation (AID 624330); type: functional
T5 sequence (Q9H0H5 whole entry): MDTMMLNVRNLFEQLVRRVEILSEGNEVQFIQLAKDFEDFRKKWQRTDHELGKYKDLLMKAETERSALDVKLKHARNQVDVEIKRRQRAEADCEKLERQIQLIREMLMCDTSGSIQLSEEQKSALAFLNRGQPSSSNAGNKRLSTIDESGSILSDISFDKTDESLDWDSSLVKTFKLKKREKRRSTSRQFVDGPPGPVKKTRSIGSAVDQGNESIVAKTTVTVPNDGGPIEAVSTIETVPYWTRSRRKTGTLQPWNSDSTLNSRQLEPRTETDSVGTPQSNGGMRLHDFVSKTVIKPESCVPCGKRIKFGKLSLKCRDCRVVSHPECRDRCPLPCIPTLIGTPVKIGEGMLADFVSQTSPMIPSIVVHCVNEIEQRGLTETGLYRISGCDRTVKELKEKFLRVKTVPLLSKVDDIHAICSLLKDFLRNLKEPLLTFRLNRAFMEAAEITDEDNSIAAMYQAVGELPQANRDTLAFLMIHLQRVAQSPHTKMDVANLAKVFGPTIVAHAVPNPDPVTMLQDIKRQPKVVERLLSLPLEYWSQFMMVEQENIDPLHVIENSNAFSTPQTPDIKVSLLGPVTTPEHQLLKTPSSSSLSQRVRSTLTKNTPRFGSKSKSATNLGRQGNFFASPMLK

Beta-galactosidase, sequence (Q8VNN2 whole entry): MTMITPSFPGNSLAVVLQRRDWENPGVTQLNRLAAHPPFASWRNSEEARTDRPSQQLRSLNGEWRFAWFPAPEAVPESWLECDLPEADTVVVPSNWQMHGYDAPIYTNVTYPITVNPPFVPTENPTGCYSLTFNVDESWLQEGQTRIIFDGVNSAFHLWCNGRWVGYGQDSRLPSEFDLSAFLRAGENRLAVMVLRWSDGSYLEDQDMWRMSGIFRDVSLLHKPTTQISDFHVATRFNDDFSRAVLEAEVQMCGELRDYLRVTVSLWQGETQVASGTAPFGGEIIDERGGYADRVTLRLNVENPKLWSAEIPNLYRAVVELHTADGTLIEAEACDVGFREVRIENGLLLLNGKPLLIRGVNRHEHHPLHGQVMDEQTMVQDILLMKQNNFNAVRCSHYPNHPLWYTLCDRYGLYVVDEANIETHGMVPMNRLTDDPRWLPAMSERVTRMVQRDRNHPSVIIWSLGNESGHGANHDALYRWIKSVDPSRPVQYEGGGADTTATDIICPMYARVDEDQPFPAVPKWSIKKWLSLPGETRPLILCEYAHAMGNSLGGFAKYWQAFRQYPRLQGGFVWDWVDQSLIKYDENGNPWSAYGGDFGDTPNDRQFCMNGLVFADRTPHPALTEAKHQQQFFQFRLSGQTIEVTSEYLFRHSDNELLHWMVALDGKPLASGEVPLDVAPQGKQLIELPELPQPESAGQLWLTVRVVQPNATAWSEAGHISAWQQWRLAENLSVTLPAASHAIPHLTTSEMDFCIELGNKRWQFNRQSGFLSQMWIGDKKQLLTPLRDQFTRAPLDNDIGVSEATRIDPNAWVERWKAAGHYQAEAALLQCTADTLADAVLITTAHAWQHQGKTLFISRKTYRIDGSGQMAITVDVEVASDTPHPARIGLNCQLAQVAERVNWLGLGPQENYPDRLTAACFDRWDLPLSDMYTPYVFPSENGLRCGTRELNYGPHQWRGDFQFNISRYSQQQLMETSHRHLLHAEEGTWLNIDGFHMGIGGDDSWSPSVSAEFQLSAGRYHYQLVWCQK
Induced myeloid leukemia cell differentiation protein Mcl-1, sequence (Q07820 whole entry): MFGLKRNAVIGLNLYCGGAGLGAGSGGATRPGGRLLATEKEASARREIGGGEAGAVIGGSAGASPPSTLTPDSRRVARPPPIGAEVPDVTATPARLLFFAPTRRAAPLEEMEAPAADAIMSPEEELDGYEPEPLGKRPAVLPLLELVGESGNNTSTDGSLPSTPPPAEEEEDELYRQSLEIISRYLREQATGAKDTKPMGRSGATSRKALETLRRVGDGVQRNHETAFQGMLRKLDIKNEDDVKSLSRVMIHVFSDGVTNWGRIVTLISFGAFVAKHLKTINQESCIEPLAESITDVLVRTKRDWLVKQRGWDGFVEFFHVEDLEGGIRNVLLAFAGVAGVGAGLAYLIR

## CN(C)c1ccc(NC(=O)c2cccc(C(=O)Nc3ccc(N(C)C)cc3)n2)cc1
[1]
  IC50: 3.33 µM (active)
[2]
  IC50: 40 µM (inactive)

## C=CCc1cccc(CNc2nc3ccccc3n2CCN2CCOCC2)c1O
Beta-galactosidase
  IC50: > 80 µM (inactive)

## O=C(c1cc(COc2ccc(F)cc2Cl)on1)N1C[C@H]2C[C@H]3C[C@@H](C2)C[C@H]1C3
[3]
  EC50: 917 nM (active)
[4]
  EC50: 26.2 µM (active)
H4
  EC50: 47.6 µM (active)
Protein skinhead-1
  IC50: > 100 µM (inactive)
Cells [5]
  IC50: > 67.5 µM (inactive)
[6]
  IC50: > 67.5 µM (inactive)

## COc1ccc(C(=O)Nc2nnc(SCC(=O)NCc3ccco3)s2)c(OC)c1
Cells [5]
  IC50: > 67.5 µM (inactive)
[6]
  IC50: > 67.5 µM (inactive)
[7]
  AC50: > 52 µM (inactive)
[8]
  AC50: > 52 µM (inactive)
[9]
  AC50: 6.14 µM (active)
[10]
  AC50: 4.64 µM (active)

## CC(C)NC(=O)NC(=O)COC(=O)Cc1c(F)cccc1Cl
Galanin receptor type 3
  IC50: > 29.9 µM (inactive)
Cells [11]
  EC50: > 29.9 µM (inactive)

## O=C(/C=C/c1ccc(OCCCF)cc1)N1CCN(Cc2ccccc2)CC1
Beta-galactosidase
  IC50: > 80 µM (inactive)

## S=C(N/N=C/c1cccs1)NC1CC2CCC1C2 (stereo not given)
[12]
  EC50: > 260 µM (inactive)
[2]
  IC50: > 122 µM (inactive)
[13]
  CC50: > 40 µM (active)

## COc1ccc(-c2cc(NC=O)c3ncc(-c4cc(OC)c(OC)c(OC)c4)n3c2)cc1
Cells [5]
  IC50: > 67.6 µM (inactive)
[6]
  IC50: > 67.6 µM (inactive)

## C/C(=N\Nc1ccc(S(=O)(=O)N2CCCCC2)cn1)c1ccc(O)cc1
[14]
  CC50: 100 µM (active)
[15]
  IC50: 23.4 µM (active)

Source: ChEMBL document CHEMBL1201862, “PubChem BioAssay data set” (2004)
